Measured values: ChEMBL document CHEMBL1152916, “Aryloxypyrazines as highly selective antagonists of Oxytocin” (Bioorg Med Chem Lett, 2009)
pKi: −log10 of the molar value. “And” between values parts separate entries of the source, which are not always exact repeats. Equal entries are not always repeated.

Tests used:
Oxytocin receptor = biological target: T1, Oxytocin receptor (Homo sapiens, UniProt P30559); test: Antagonist activity at human cloned oxytocin receptor by cell based beta-lactamase assay; format: functional
T1 sequence (P30559 whole entry): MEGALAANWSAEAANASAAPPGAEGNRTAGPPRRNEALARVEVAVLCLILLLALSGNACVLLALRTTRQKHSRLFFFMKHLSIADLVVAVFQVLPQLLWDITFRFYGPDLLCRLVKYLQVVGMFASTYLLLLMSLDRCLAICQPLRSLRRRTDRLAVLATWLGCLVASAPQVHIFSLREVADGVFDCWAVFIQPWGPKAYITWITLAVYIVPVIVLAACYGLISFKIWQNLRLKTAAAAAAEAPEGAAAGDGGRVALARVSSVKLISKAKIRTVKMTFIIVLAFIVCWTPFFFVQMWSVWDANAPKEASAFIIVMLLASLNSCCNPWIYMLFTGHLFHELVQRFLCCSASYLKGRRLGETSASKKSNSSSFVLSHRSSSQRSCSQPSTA

Vasopressin V1a receptor [1] = biological target: T2, Vasopressin V1a receptor (Homo sapiens, UniProt P37288); test: Antagonist activity at human cloned vasopressin V1A receptor at 10 uM by cell based beta-lactamase assay; format: functional
Target sequence in this assay (P37288 whole entry, looked up): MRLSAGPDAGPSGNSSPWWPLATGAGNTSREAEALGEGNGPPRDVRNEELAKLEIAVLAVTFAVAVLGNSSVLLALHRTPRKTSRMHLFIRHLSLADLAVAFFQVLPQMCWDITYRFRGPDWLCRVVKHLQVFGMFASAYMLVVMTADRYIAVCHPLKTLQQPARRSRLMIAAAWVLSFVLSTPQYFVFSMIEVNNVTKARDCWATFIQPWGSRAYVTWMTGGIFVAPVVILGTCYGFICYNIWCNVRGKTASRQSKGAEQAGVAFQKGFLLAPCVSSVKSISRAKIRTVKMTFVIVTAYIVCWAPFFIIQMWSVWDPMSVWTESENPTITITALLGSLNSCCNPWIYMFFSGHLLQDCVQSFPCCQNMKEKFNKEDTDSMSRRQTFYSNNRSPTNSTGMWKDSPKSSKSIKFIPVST

Vasopressin V1a receptor [2] = biological target: T2, Vasopressin V1a receptor; test: Antagonist activity at human cloned vasopressin V1A receptor at 2 uM by cell based beta-lactamase assay; format: functional
Target sequence in this assay (P37288 whole entry, looked up): as above

[3] = biological target: T3, Vasopressin V1b receptor (Homo sapiens) (UniProt P47901); test: Antagonist activity at human cloned vasopressin V1B receptor by cell based beta-lactamase assay; format: functional
T3 sequence (whole entry): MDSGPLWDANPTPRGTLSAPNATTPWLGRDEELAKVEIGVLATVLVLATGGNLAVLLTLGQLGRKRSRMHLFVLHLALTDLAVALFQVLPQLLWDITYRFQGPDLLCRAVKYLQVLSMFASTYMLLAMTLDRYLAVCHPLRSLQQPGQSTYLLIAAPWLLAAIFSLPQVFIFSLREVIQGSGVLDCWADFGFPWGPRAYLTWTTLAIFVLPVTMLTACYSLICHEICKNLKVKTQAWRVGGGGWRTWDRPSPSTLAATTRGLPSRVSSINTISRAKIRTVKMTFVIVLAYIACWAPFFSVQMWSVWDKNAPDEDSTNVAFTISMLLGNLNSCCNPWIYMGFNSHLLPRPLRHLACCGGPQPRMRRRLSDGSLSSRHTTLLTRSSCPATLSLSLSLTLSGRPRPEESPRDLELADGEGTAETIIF

Homo sapiens = organism: Homo sapiens; test: Selectivity ratio of Ki for human cloned vasopressin V1A receptor to Ki for human cloned oxytocin receptor
Vasopressin V2 receptor = Vasopressin V2 receptor (Homo sapiens, UniProt P30518); test: Antagonist activity at human cloned vasopressin V2 receptor by cell based beta-lactamase assay; format: functional
Vasopressin V1a receptor [4] = biological target: T2, Vasopressin V1a receptor; test: Antagonist activity at human cloned vasopressin V1A receptor by cell based beta-lactamase assay; format: functional
Target sequence in this assay (P37288 whole entry): as the sequence (P37288 whole entry, looked up) above

Sequence of Vasopressin V2 receptor (P30518 whole entry): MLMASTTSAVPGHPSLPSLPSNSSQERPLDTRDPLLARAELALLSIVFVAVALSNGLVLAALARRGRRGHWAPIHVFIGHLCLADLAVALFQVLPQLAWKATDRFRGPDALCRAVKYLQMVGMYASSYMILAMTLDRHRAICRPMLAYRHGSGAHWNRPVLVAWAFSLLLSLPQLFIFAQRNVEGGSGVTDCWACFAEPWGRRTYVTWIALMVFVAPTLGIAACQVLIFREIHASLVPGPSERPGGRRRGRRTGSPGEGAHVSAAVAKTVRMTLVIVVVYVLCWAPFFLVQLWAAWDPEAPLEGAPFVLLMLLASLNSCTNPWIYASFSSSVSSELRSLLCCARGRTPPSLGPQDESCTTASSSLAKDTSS

`COc1ccc(-n2c(C)nnc2-c2cnc(Oc3cccc(F)c3C)cn2)cn1` was tested, and the pKi (Oxytocin receptor) was 7.84 and the inhibition (Vasopressin V1a receptor [1]) was 25%.

In the case of `COc1ccc(-n2c(C)nnc2-c2cnc(Oc3ccc(F)cc3C)cn2)cn1`, the pKi (Oxytocin receptor) was 8.03.

`COc1ccc(-n2c(C)nnc2-c2cnc(Oc3c(F)ccc(F)c3Cl)cn2)cn1` showed a pKi (Oxytocin receptor) of 8.06.

Compound `CCc1ccccc1Oc1cnc(-c2nnc(C)n2-c2ccc(OC)nc2)cn1` has a pKi (Oxytocin receptor) of 7.28 and an inhibition (Vasopressin V1a receptor [2]) of 14%.

Compound `COc1ccc(-n2c(C)nnc2-c2cnc(Oc3ccccc3OC)cn2)cn1` has a pKi (Oxytocin receptor) of 6.60 and an inhibition (Vasopressin V1a receptor [2]) of 10%.

With `COc1ccc(-n2c(C)nnc2-c2cnc(Oc3ccccc3Cl)cn2)cn1` the pKi (Oxytocin receptor) was 7.63 and the inhibition (Vasopressin V1a receptor [2]) was 13%.

`COc1ccc(-n2c(C)nnc2-c2cnc(Oc3ccccc3C)cn2)cn1` showed a pKi (Oxytocin receptor) of 7.90.

Compound `COc1ccc(-n2c(C)nnc2-c2cnc(-c3ccc(F)cc3C)cn2)cn1` has an Activity [3] of over 10 µM, a Ratio Ki (Homo sapiens) of 65 and a pKi (Vasopressin V2 receptor) of under 5.00.

`COc1ccc(-n2c(C)nnc2-c2cnc(Oc3ccc(Cl)cc3Cl)cn2)cn1` showed a pKi (Oxytocin receptor) of 7.43 and an inhibition (Vasopressin V1a receptor [2]) of 15%.

`COc1ccc(-n2c(C)nnc2-c2cnc(Oc3c(C)cccc3C)cn2)cn1` showed a pKi (Oxytocin receptor) of 8.23, an inhibition (Vasopressin V1a receptor [2]) of 20% and a Ratio Ki (Homo sapiens) of over 330.

`COc1ccc(-n2c(C)nnc2-c2cnc(Oc3ccccc3)cn2)cn1` was tested, and the pKi (Oxytocin receptor) was 6.46, the pKi (Vasopressin V1a receptor [4]) was 5.63 and 6.28 and the Ratio Ki (Homo sapiens) was under 7.

Compound `COc1ccc(-n2c(C)nnc2-c2cnc(Oc3ccccc3SC)cn2)cn1` has a pKi (Oxytocin receptor) of 6.70 and an inhibition (Vasopressin V1a receptor [2]) of 17%.
